Test [1] concerns 5′-AGTGAA-3′ within the IE86 binding site. On the set-up: species or system human cytomegalovirus. As to conditions: 1-200 nM. From the text: These compounds together with purified recombinant IE86 protein were used in DNase I footprint experiments with a singly end-labeled restriction fragment derived from the CMV major immediate early promoter. […] A singly-end labeled restriction fragment was used in DNase I footprinting reactions. […] Lanes 1 and 18 represent a G+A sequencing ladder. […] The location of the TATA box and the start of transcription are indicated.

In test [2] the test system is TBP binding to the TATA box region of the adenovirus major late promoter. The test can be described thus: Gel mobility shift, TBP binding to adenovirus major late promoter TATA box. On the set-up: species or system human. As to conditions: mismatch flanking sequences. As to the method: (§1) Regions of polyamide protection were determined by analysis of the digestion products on a 6% denaturing polyacrylamide sequencing gel. Storage phosphorimage analysis of the data was used to obtain dissociation constants for the binding reactions (using Kodak Storage Phosphor Screens and a Molecular Dynamics SF PhosphorImager). Recombinant human TBP (rhTBP) was obtained from Promega and was used in footprinting and gel mobility shift experiments as recommended. The reaction mixtures also contained 100 ng of poly dG-poly dC per 10 μL gel shift reaction or 50 μL footprinting reaction. For gel mobility shift assays, 6% polyacrylamide gels (20:1, acrylamide to bisacrylamide) contained 44 mM Tris-borate, pH 8.3, 1 mM EDTA, […] and 0.02% (v/v) NP-40. The same buffer was used for electrophoresis of 1 mm thick gels at 15 volts/cm for 2 hours at 4° C.

In test [3] the test system is 5′-AGTACT-3′ site adjacent to the LEF-1 binding site. In words: DNase footprint titration on HIV-1 enhancer/promoter fragment. As to conditions: mismatch polyamide. Here is the method: White, S., Baird, E. E. & Dervan, P. B. describes the pairing rules for recognition in the minor groove of DNA by pyrrole-imidazole polyamides. […] Labeled DNA was incubated with polyamide (45 minutes) and digested with DNase I under single-hit conditions.
as §1

In another test the test system is Ets-1 ΔN331/DNA complex. The test can be described thus: Gel mobility shift, Ets-1 binding to HIV-1 enhancer oligonucleotide.
The subject of test [4] is 5′-TCGTCGA-3′ (reversed orientation match site). It counts as binding.
The test system of test [5] is CMV major immediate early promoter. The test can be described thus: CMV MIEP transcription in vitro (control template). It counts as biochemical, human cytomegalovirus. Particulars: H9/HeLa extract system. As to the method:
The effects of polyamides 1 and 2 on HIV-1 transcription were tested in an in vitro transcription assay with a HeLa cell nuclear extract (FIG. 21A). The effects of the polyamides on basal transcription by RNA polymerase II was monitored with a nuclear extract prepared from HeLa cells (J. D. Dignam, P. L. Martin, B. S. Shastry, R. G. Roeder, Describe eukaryotic gene transcription with purified components Meth. Enzymol. 101, 582 (1983)). The human lymphloid cell line H9 (ATCC HTB 176) was grown in suspension culture in RPMI medium (Bio Whittaker) supplemented with 10% fetal calf serum (Tissue Culture Biological). Whole cell extracts of H9 cells in log phase growth were prepared by hypotonic lysis and contained 20 mg/ml protein, as determined by the Bradford reaction. Run-off RNA transcripts of ˜300 bases (CMV MIEP linked to a guanine-less cassette, plasmid pEIB-GL and ˜500 bases (pHIV LTR-CAT) where obtained with EcoRI-digested plasmid DNA (100 ng per 25 μL reaction).
Polyamide-DNA complexes were allowed to form at ambient temperature for 30 min prior to addition of the nuclear extract. […] RNA was purified by extraction with RNAzol (TelTest, Friendswood, Tex.) and analyzed by electrophoresis on a denaturing (8.3 M urea) 6% polyacrylamide gel. […]

The subject of test [6] is rhTBP binding to the HIV-1 TATA element. In words: DNase I footprinting, inhibition of TBP binding to HIV-1 LTR fragment. On the set-up: species or system human. Here is the method:
as §1

The next test relates to HIV-1 strain WEAU1.6. The test can be described thus: HIV-1 replication in human PBMC, p24 ELISA. It counts as cell-based. As to conditions: mismatch controls, alone or in combination.

Each structure is given as a SMILES string.

Description for HIV-1 strain WEAU1.6: PBMC were infected with the T cell-tropic HIV-1 strain WEAU1.6, or the macrophage-tropic strain SF162. […] Polyamides were added to the culture medium and the levels of HIV-1 p24 viral capsid protein in the culture media were determined on subsequent days using a standard ELISA assay.
Human PBMC were separated from whole blood collected from normal adult volunteers by density gradient centrifugation as described. […] Human PBMC were activated with 2 μg/mL PHA and 20 units/mL of IL-2 for 2-3 days prior to HIV-1 infection. […] Free virus was removed by washing the cells in medium, and polyamides added to the culture. […] Virus replication in culture was measured by HIV-1 p24 viral capsid antigen ELISA (DuPont Medical Products, Boston, Mass.).
PBMC cultures were infected with the primary HIV-1 isolate WEAU 1.6 (kindly provided by G. Shaw), and virus replication measured by release of p24 capsid antigen into the medium that was detected by antibody-capture ELISA (Dupont). Each experiment involved a separate PBMC donor.

Take `CN(C)CCCNC(=O)CCNC(=O)c1cc(NC(=O)c2nc(NC(=O)CCNC(=O)c3cc(NC(=O)c4nc(NC(=O)CCCNC(=O)c5cc(NC(=O)c6nc(NC(=O)CCNC(=O)c7cc(NC(=O)c8nccn8C)cn7C)cn6C)cn5C)cn4C)cn3C)cn2C)cn1C` [polyamide 4, ImPy-β-ImPy-γ-ImPy-β-ImPy-β-Dp]: in test [1], the “footprint on the CMV fragment” value is on record as “did not give a footprint”. Moreover, the “inhibition of TBP binding to adenovirus major late promoter TATA box” value in test [2] is “did not inhibit”. Further, the “fold reduced affinity for the 5′-AGTACT-3′ sequence” value in test [3] was above 100 fold. The “effect on Ets-1 DNA-binding / complex formation” value with Ets-1 ΔN331/DNA complex (polyamide preincubated with oligonucleotide, 100-400 nM) is listed as “did not prevent”. Further, the “effect on complex formation in the same concentration range” value with Ets-1 ΔN331/DNA complex (titration, mismatch polyamide) was “virtually no effect”. In addition, the “fold lower affinity for 5′-TCGTCGA-3′ than for 5′-TGCTGCA-3′” value in test [4] is given as around 10 fold. Further, the “inhibition of CMV transcription” value in test [5] is recorded as “fails to inhibit”. Further, in test [6] (DNase I footprinting, 2.5-10 nM polyamide), the “inhibition of TBP binding to the HIV-1 TATA element” value was “inhibited”. Besides, in test [6] (five-fold excess of polyamide over DNA binding sites), the “polyamide concentration at which TBP binding is inhibited” value is recorded as 2.5 nM. Moreover, in the test with HIV-1 strain WEAU1.6, the “effect on the level of virus in the medium” value is on record as “had no effect”.

These data come from patent US6660255B1, “Inhibition of gene transcription by polyamide DNA-binding ligands” (California Institute of Technology, priority 1997, dated 2003).
